# According to ChEMBL document CHEMBL1201862, “PubChem BioAssay data set” (2004):
#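 How tested: cells in 96-well plates exposed to compound for 48 hours at five concentrations. GI50 marks 50% less growth.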 Activity calls are given as the source filed them. Cut-off read from the data, not from the text of the source: active = GI50 up to about 1.1 µM and inactive = higher.
# Key:
# Assay in all cases: inhibition of tumour cell growth, NCI panel, 48 h
# [1] = test system: EKVX
# [2] = test system: HT-29
# [3] = test system: K562
# [4] = test system: KM12
# [5] = test system: MOLT-4
# [6] = test system: NCI-H23
# [7] = test system: NCI-H460
# [8] = test system: OVCAR-3
# [9] = test system: OVCAR-4
# [10] = test system: OVCAR-5
# [11] = test system: SF-295
# [12] = test system: SF-539
# [13] = test system: SNB-19
# [14] = test system: SNB-78
# [15] = test system: U-251
# [16] = test system: UO-31
# [17] = test system: UACC-62
SMILES,GI50 [1],GI50 [2],GI50 [3],GI50 [4],GI50 [5],GI50 [6],GI50 [7],GI50 [8],GI50 [9],GI50 [10],GI50 [11],GI50 [12],GI50 [13],GI50 [14],GI50 [15],GI50 [16],GI50 [17]
COC(=O)Cc1cc(=O)n2c3ccccc3n(C)c2c1C#N,> 100 µM (inactive),> 100 µM (inactive),> 100 µM (inactive),> 100 µM (inactive),> 100 µM (inactive),> 100 µM (inactive),> 100 µM (inactive),> 100 µM (inactive),> 100 µM (inactive),> 100 µM (inactive),> 100 µM (inactive),> 100 µM (inactive),> 100 µM (inactive),> 100 µM (inactive),> 100 µM (inactive),> 100 µM (inactive),
COC1OC(CO)C(O)C(NC(=O)N(C)N=O)C1O (configuration not stated),> 100 µM (inactive),> 100 µM (inactive),> 100 µM (inactive),> 100 µM (inactive),> 100 µM (inactive),> 100 µM (inactive),> 100 µM (inactive),> 100 µM (inactive),> 100 µM (inactive),,> 100 µM (inactive),> 100 µM (inactive),> 100 µM (inactive),> 100 µM (inactive),> 100 µM (inactive),> 100 µM (inactive),
CN(C)C(=S)/N=c1\ss/c(=N\S(=O)(=O)c2ccccc2)n1C,> 100 µM (inactive),> 100 µM (inactive),> 100 µM (inactive),> 100 µM (inactive),> 100 µM (inactive),> 100 µM (inactive),> 100 µM (inactive),,> 100 µM (inactive),> 100 µM (inactive),> 100 µM (inactive),> 100 µM (inactive),> 100 µM (inactive),> 100 µM (inactive),> 100 µM (inactive),> 100 µM (inactive),> 100 µM (inactive)
[N-]=[N+]=NC(CBr)c1cn([C@H]2C[C@H](O)[C@@H](CO)O2)c(=O)[nH]c1=O (some centres not stated),> 100 µM (inactive),> 100 µM (inactive),> 100 µM (inactive),> 100 µM (inactive),> 100 µM (inactive),> 100 µM (inactive),> 100 µM (inactive),> 100 µM (inactive),,> 100 µM (inactive),> 100 µM (inactive),> 100 µM (inactive),> 100 µM (inactive),> 100 µM (inactive),> 100 µM (inactive),> 100 µM (inactive),> 100 µM (inactive)
O=C(O)CNc1c2ccccc2[n+]([O-])c2ccccc12,> 100 µM (inactive),> 100 µM (inactive),13.9 µM (inactive),> 100 µM (inactive),69.3 µM (inactive),60.7 µM (inactive),> 100 µM (inactive),> 100 µM (inactive),94.2 µM (inactive),> 100 µM (inactive),> 100 µM (inactive),,> 100 µM (inactive),> 100 µM (inactive),> 100 µM (inactive),43.4 µM (inactive),67.8 µM (inactive)
COc1ccc(N2C(=O)[C@@H](N=[N+]=[N-])[C@@H]2[C@H]2COC(C)(C)O2)cc1,> 100 µM (inactive),> 100 µM (inactive),> 100 µM (inactive),> 100 µM (inactive),> 100 µM (inactive),> 100 µM (inactive),> 100 µM (inactive),> 100 µM (inactive),> 100 µM (inactive),> 100 µM (inactive),> 100 µM (inactive),> 100 µM (inactive),> 100 µM (inactive),> 100 µM (inactive),> 100 µM (inactive),> 100 µM (inactive),75 µM (inactive)
CN(C)CCNC(=O)c1cccc2nc3cc(Cl)ccc3nc12,4.25 µM (inactive),1.36 µM (inactive),1.18 µM (inactive),2.51 µM (inactive),0.378 µM (active),2 µM (inactive),,2.17 µM (inactive),2.42 µM (inactive),3.05 µM (inactive),3.25 µM (inactive),3.12 µM (inactive),3.4 µM (inactive),2.65 µM (inactive),2.86 µM (inactive),4.26 µM (inactive),3.69 µM (inactive)
N#CC(C(=O)CCCC(=O)Nc1ccc(Cl)cc1Cl)c1ccc(Cl)cc1 (configuration not stated),,> 100 µM (inactive),> 100 µM (inactive),> 100 µM (inactive),> 100 µM (inactive),> 100 µM (inactive),> 100 µM (inactive),> 100 µM (inactive),> 100 µM (inactive),> 100 µM (inactive),> 100 µM (inactive),> 100 µM (inactive),> 100 µM (inactive),> 100 µM (inactive),,> 100 µM (inactive),> 100 µM (inactive)
